Experimental data taken from patent US7514094B2, “Pesticidal composition” (Ishihara Sangyo Kaisha, Ltd., priority 2000, dated 2009).

What was measured:
Type in all cases: in vivo
Thrips palmi [1] = test: Insecticidal test of Thrips palmi (test in a vinyl house); conditions: 288 h
Protocol: Insecticidal test of Thrips palmi (test in a vinyl house)
An agrochemical liquid diluted to a predetermined concentration was applied by a shoulder sprayer on a 6 to 8 foliate eggplant having Thrips palmi parasitic thereon in an amount of 100 l per 10 are. The numbers of the parasitic insects were counted before treatment and 12 days after the treatment, and a Percent Control was calculated in the same manner as in Test Example 1, and the results are shown in the following Table 4.
Also, a theoretical value of the Percent Control […] calculated in accordance with the Colby formula in the same manner as in Test Example 2 are shown in parenthesis in the following Table 4.

Thrips palmi [2] = test: Insecticidal test (2) of Thrips palmi on potted eggplant, spray; conditions: Compound No. 1 0 ppm, 7 days after treatment
Protocol: Insecticidal test on (2) of Thrips palmi
An agrochemical liquid diluted to a predetermined concentration was applied by a spray gun to a 10 to 12 folite eggplant having Thrips palmi parasitic thereon in a pot so as to make the eggplant fully wet with the agrochemical liquid and the pot was placed in a greenhouse.
The numbers of the parasitic insects were counted […] before treatment and 7 days after the treatment, and a Percent Control was calculated in the same manner as in Test Example 1, and the results are shown in the following Table 2.
Also, a theoretical mortality value (%) was calculated in accordance with the following Colby formula. When value of the Percent Control is higher than the theoretical value of the Percent Control (in accordance with the Colby formula), it is considered that the pesticidal composition of the present invention achieves a synergistic pesticidal effect. The theoretical values of the Percent Control calculated in accordance with the Colby formula are shown in parentheses in the following Table 2. Theoretical value of the Percent Control=100−(X×Y)/100 • X: 100−(Percent Control in case of treating with Compound No. 1 only) • Y: 100−(Percent Control in case of treating with Chlorfluazuron only)

[3] = system: Western Flower Thrips Frankliniella occidentalis; test: Insecticidal test of Western Flower Thrips on potted eggplant, spray; conditions: 48 h
From the text: Insecticidal test of Western Flower Thrips Frankliniella occidentalis
An agrochemical liquid diluted to a predetermined concentration was applied by a spray gun to a 10 to 12 foliate eggplant having Western Flower Thrips Frankliniella occidentalis parasitic thereon in a pot so as to make the eggplant fully wet with the agrochemical liquid, and the pot was placed in a greenhouse. The numbers of the parasitic insects were counted before treatment and 2 days after the treatment, and a Percent Control was calculated in the same manner as in Test Example 1.
Also, a theoretical value of the Percent Control was calculated in accordance with the Colby formula in the same manner as in Test Example 1 and the results are shown in parenthesis in the following Table 3.

Thrips palmi [4] = test: Insecticidal test (1) of Thrips palmi on potted eggplant, spray; conditions: Compound No. 1 0 ppm, 3 days after treatment
Protocol: Insecticidal test (1) of Thrips palmi
An agrochemical liquid diluted to a predetermined concentration was applied by a spray gun to a 10 to 12-foliate eggplant having Thrips palmi parasitic thereon in a pot so as to make the eggplant fully wet with the agrochemical liquid and the pot was placed in a greenhouse. The numbers of the parasitic insects were counted before treatment and three days after the treatment, and a Percent Control was calculated in accordance with the following formula and the results are shown in the following Table 1. Percent Control=100−((Ta×Cb)/(Tb×Ca)×100) • Ta: Number of insects per treated plants after treatment • Tb: Number of insects per treated plants before treatment • Ca: Number of insects per untreated plants after treatment • Cb: Number of insects per untreated plants before treatment
Also, a theoretical value of the Percent Control was calculated in accordance with the following Colby formula.
When value of the Percent Control is higher than the theoretical value (%) (in accordance with the Colby formula), it is considered that the pesticidal composition of the present invention achieves a synergistic pesticidal effect. The theoretical values of the Percent Control calculated in accordance with the Colby formula are shown in parentheses in the following Table 1. […]

Structure (SMILES)	mortality at 25 ppm (Thrips palmi [1]) [%]	Percent Control (Thrips palmi [2]; Chlorfluazuron 12.5 ppm) [%]	Percent Control (Thrips palmi [2]; Chlorfluazuron 25 ppm) [%]	mortality at 25 ppm [3] [%]	Percent Control (Thrips palmi [4]; Flufenoxuron 12.5 ppm) [%]	Percent Control (Thrips palmi [4]; Flufenoxuron 25 ppm) [%]
O=C(NC(=O)c1c(F)cccc1F)Nc1cc(Cl)c(Oc2ncc(C(F)(F)F)cc2Cl)c(Cl)c1 [Chlorfluazuron (E-2), Chlorfluazuron]	58	55	52			
O=C(NC(=O)c1c(F)cccc1F)Nc1ccc(Oc2ccc(C(F)(F)F)cc2Cl)cc1F [Flufenoxuron (E-4), Flufenoxuron]				31	70	67
